Assay results as given in US9326970B2, “Choline esters” (Encore Health, LLC, priority 2009, dated 2016).

Assays:
mouse lenses = experiment: Increase in elasticity: lens organ culture, change in lens diameter under coverslip (ΔD)
Text: FIG. 4 depicts a scatter plot of the change in ΔD (micrometers) in the absence (control) and presence of lipoic acid in lens organ culture experiments. […] Statistical values are highly significant at p<0.0001 by unpaired t-test and by Kruskal Wallis test, which compared medians of each data set. The relative change in Young's modulus (E) can be calculated as the cubic value derived from the ΔD of the control divided by the ΔD of the experimental or E fractional change=(ΔD con/ΔDexp)^3.
Increase in Elasticity: Pairs of mouse lenses were incubated in medium 200 supplemented with an antibiotic, an antimycotic, the presence or absence of lipoic acid (concentrations ranging from 0.5 μM to 500 μM) for 8-15 hours. Each lens was removed from medium, weighed, and photographed on a micrometer scale. A coverslip of known weight (0.17899±0.00200 g) was placed on the lens, and the lens was photographed again on the micrometer scale. The diameter of each lens with and without the coverslip was determined from the photographs. The change in lens diameter produced by the force (coverslip) was computed ΔD=(Dwithcoverslip−Dwithoutcoverslip).

[1] = system: protein disulfides in the mouse lenses; experiment: Decrease in disulfide bonds: protein SH/SS groups in lens homogenates
Method: FIG. 5 depicts a scattergram of the percent of the total protein SH groups in disulfide bonds. Free SH groups were alkylated with 4-acetamido-4′-maleimidylstilbene-2,2′-sulfonic acid (c, 1 μM, 5 μM, 9.6 μM, 50 μM, 96 μM) or 7-diethylamino-3-(4′maleimidylphenyl)-4-methyl coumarin (500 μM, and 500 μM c). Following removal of the first alkylating agent, the S—S bonds were reduced and alkylated with fluorescein-5-maleimide. Absorption spectra were used to calculated total protein (A280 nm), free protein SH (A322 or A384), and protein SS (A490) using the appropriate extinction coefficients. The symbol ‡ indicates statistically significant difference of mean with mean of control (c, p≦0.05).
Mouse lenses were homogenized in a denaturing buffer containing a fluorescent alkylating agent to modify the free SH groups. After removing the alkylating agent homogenates were reduced and alkylated with a different fluorescent alkylating agent. Absorption spectra of the modified proteins were used to calculate free protein SH and protein SS groups.

[2] = system: human umbilical vein endothelial cells (HUVEC, first passage); experiment: In vitro toxicology: cell viability (MultiTox-Fluor or Live/Dead assay); assay type: cell-based; details: doses ranging from 0.1 μM to 100 μM
Method: Cell viability was determined using human umbilical vein endothelial cells (HUVEC, first passage). Cells were treated with the active agent in doses ranging from 0.1 μM to 100 μM. The number of live and dead cells was determined using the MultiTox-Fluor assay (Promega) or Live/Dead® assay (Invitrogen). Logistic plots were used to determine the compound's LD50 value. Lipoic acid was not cytotoxic the concentration range.

O=C(O)CCCCC1CCSS1 (centres unmarked) [Lipoic acid, 5-(1,2-dithiolan-3-yl)pentanoic acid]
change in ΔD (micrometers) compared to controls, FIG. 4 (mouse lenses; lens organ culture, data sets marked ‡, p<0.0001 by unpaired t-test and Kruskal Wallis test): significantly larger changes in ΔD | change in ΔD (lens diameter with coverslip minus without) (mouse lenses; lipoic acid at concentrations ≧9.6 μM, 8-15 hours incubation, vs control, p<0.0001): statistically significant increase in ΔD | percent of the total protein SH groups in disulfide bonds, FIG. 5 ([1]; 500 μM lipoic acid vs 500 μM control, p=0.027): significantly different | protein disulfides ([1]; lipoic acid at concentrations ≧9.6 μM, mouse lenses with a significant increase in ΔD): statistically significant decrease in protein disulfides | cytotoxicity (cell viability, LD50 from logistic plots) [2]: not cytotoxic
